In paper PMC4864078, “De Novo Transcriptome Analysis and Detection of Antimicrobial Peptides of the American Cockroach Periplaneta americana (Linnaeus)” (PLoS ONE, 2016):

How the values were obtained:
[1] = system: C. albicans (ATCC 14053); type: cell-based, Candida albicans; conditions: Mueller-Hinton Broth, 2 × 10^4 CFU/mL, 18 h at 37°C, visible turbidity, complete growth inhibition
Description: (§1) The bacterial strains E. coli (KACC 13821, ATCC 11775) and Staphylococcus aureus (KACC 10768, ATCC 25923), and the yeast strain Candida albicans (KCTC 7121, ATCC 14053) were purchased from the Korean Agricultural Culture Collection (KACC) and Korean Collection for Type Cultures (KCTC). Both bacteria and the yeast were cultivated overnight in tryptic soy broth (TSB; Difco, USA) at 200 rpm in a 37°C shaking incubator to the stationary phase. Bacteria were cultivated for 3 h in fresh TSB medium under the same condition to the log phase. The strains were stored with 15% glycerol at −70°C until use.
(§2) In addition, antimicrobial activities of the peptides were also tested by broth microdilution assays against E. coli, S. aureus, and C. albicans. Briefly, microbes were grown overnight in Mueller-Hinton Broth (MHB) to the onset of the stationary phase with shaking at 200 rpm. The cultures were diluted in fresh MHB to a final concentration of 2 × 10^4 CFU/mL. A stock solution of each peptide was prepared to a concentration of 640 μg/mL in 0.01% acetic acid, and was then serially diluted two-fold to reach a concentration of 10 μg/mL. After 90-μL aliquots of the microbial suspension were dispensed into each well of a 96-well polypropylene microtiter plate, 10 μL of the peptide solution was added. The antimicrobial activities of the peptides were assessed by measuring the visible turbidity in each well of the plate after 18 h of incubation at 37°C. Minimum inhibitory concentrations (MICs) are expressed as a specific value that caused complete growth inhibition.

[2] = system: Human umbilical vein endothelial cells (HUVECs); test: Cell viability assay (MTS); type: cell-based; conditions: 24 h treatment, 25, 50, 100 and 200 μg/mL, OD 490 nm
Description: (§3) The human keratinocytes were maintained in Dulbecco’s Modified Eagle Medium supplemented with 10% fetal bovine serum (FBS; Hyclone, USA), penicillin G (100 U/mL), and streptomycin (100 μg/mL) (Invitrogen, USA). Human umbilical vein endothelial cells (HUVECs) were grown on 0.1% gelatin-coated cell culture dishes in M199 medium (Welgene, Korea) supplemented with 20% (v/v) FBS, 3 ng/mL basic fibroblast growth factor (R&D Systems, USA), 5 U/mL of heparin (Sigma, USA), and a penicillin-streptomycin-amphotericin B mixture (100 U/mL potassium penicillin, […] streptomycin sulfate, and 250 ng/mL amphotericin B; Lonza, Belgium) as a complete medium. Cells were cultured at 37°C in a humidified incubator with 5% CO2. Cells were plated in 96-well tissue culture plates (2 × 10^4 cells per well). After 1 day, they were treated with various concentrations (25, 50, 100, and 200 μg/mL) of peptides. Melittin (Sigma, USA) was used as the positive control. After incubation for 24 h, the viability of the cells was assessed by the Cell Titer 96 AQueous One Solution Cell Proliferation Assay according to the manufacturer’s protocol (Promega, USA). The optical density at 490 nm was measured with a microplate reader (Beckman DTX 8800 Multi Detector, USA).

[3] = system: human keratinocytes; test: Cell viability assay (MTS); type: cell-based; conditions: 24 h treatment, 25, 50, 100 and 200 μg/mL, OD 490 nm
Description: as §3

[4] = system: E. coli (ATCC 11775); test: Broth microdilution assay (MIC); type: cell-based, Escherichia coli; conditions: Mueller-Hinton Broth, 2 × 10^4 CFU/mL, 18 h at 37°C, visible turbidity, complete growth inhibition
Description: as §1, §2

[5] = system: S. aureus (ATCC 25923); test: Broth microdilution assay (MIC); type: cell-based, Staphylococcus aureus; conditions: Mueller-Hinton Broth, 2 × 10^4 CFU/mL, 18 h at 37°C, visible turbidity, complete growth inhibition
Description: as §1, §2

[6] = system: E. coli; test: Radial diffusion assay; type: cell-based, Escherichia coli; conditions: diameter of growth inhibition zone after 12 h; compared with melittin; repeated three times
Description: as §1
(§4) The radial diffusion assay was performed to test the antimicrobial activities of peptides, as described previously with slight modifications. In brief, bacteria and yeast strains were grown to the mid-logarithmic phase in TSB at 37°C and then washed twice with 10 mM Tris-HCl (containing 5 mM glucose, pH 7.4). A total of 4 × 10^6 CFU was added to 10 mL of an underlay agarose gel [0.03% (w/v) TSB, 1% (w/v) agarose (Sigma, USA), and 0.02% (v/v) Tween 20 (Sigma, USA) in 10 mM Tris-HCl]. The underlay gel was poured into a 100-mm INTEGRID^TM Petri dish. After agarose solidification, 3-mm-diameter wells were punched and 5 μL of each peptide solution was added to each well. Buffer alone was used as a negative control. Plates were incubated at 37°C for 3 h to allow for diffusion of the peptides. The underlay gel was then covered with 10 mL of nutrient-rich agar overlay (6% TSB and 1% agarose in 10 mM Tris-HCl). […] This experiment was repeated at least 3 times and the same results were obtained.

[7] = system: S. aureus; test: Radial diffusion assay; type: cell-based, Staphylococcus aureus; conditions: diameter of growth inhibition zone after 12 h; compared with melittin; repeated three times
Description: as §1, §4

[8] = system: C. albicans; test: Radial diffusion assay; type: cell-based, Candida albicans; conditions: diameter of growth inhibition zone after 12 h; repeated three times
Description: as §1, §4

[9] = system: Gram-negative bacteria, Gram-positive bacteria, and yeast; test: Radial diffusion assay, statement over all three microbes; type: cell-based; conditions: increased in a dose-dependent manner, cleared zone after 12 h at 37°C
Description: as §1, §4

[10] = system: rat erythrocytes; test: Hemolytic assay; type: cell-based; conditions: 100 μg/mL, compared to melittin, 30 min at 37°C, A540
Description: This experiment was approved by the Institutional Animal Care and Use Committee (IACUC) of the National Academy of Agricultural Sciences (approval number: NAAS-1114). The hemolytic activity of the peptides was determined by monitoring the release of hemoglobin from rat erythrocytes at 540 nm. For the hemolytic assay, 20 μL of each peptide solution at a predetermined concentration was added to 180 μL of a 2.5% (v/v) suspension of rat erythrocytes in phosphate-buffered saline (PBS). Melittin (Sigma, USA), a hemolytic and α-helical peptide isolated from bee venom, was used as the positive control. This mixture was incubated for 30 min at 37°C, and 600 μL of PBS was then added to each tube. After 3 min of centrifugation at 10,000 ×g, the supernatant was […], and the absorbance was measured at 540 nm. Evaluations were made from the results of at least three independent experiments, each carried out in triplicate.

Compound	Minimum Inhibitory Concentration (MIC) [1] [µg/mL]	Cell viability of HUVECs [2]	Cell viability of human keratinocytes [3]	Minimum Inhibitory Concentration (MIC) [4] [µg/mL]	Minimum Inhibitory Concentration (MIC) [5] [µg/mL]	Antimicrobial activity in E. coli (radial diffusion assay) [6]	Antimicrobial activity in S. aureus (radial diffusion assay) [7]	Antimicrobial activity against C. albicans (radial diffusion assay) [8]	Antimicrobial activity in radial diffusion assay [9]	Hemolytic activity [10]
CC[C@H](C)[C@H](NC(=O)CN)C(=O)NCC(=O)N[C@@H](C)C(=O)N[C@H](C(=O)N[C@@H](CC(C)C)C(=O)N[C@@H](CCCCN)C(=O)N[C@H](C(=O)N[C@@H](CC(C)C)C(=O)N[C@H](C(=O)N[C@H](C(=O)NCC(=O)N[C@@H](CC(C)C)C(=O)N1CCC[C@H]1C(=O)N[C@@H](C)C(=O)N[C@@H](CC(C)C)C(=O)N[C@H](C(=O)N[C@@H](CO)C(=O)N[C@@H](Cc1c[nH]c2ccccc12)C(=O)N[C@H](C(=O)N[C@@H](CCCCN)C(=O)N[C@@H](CCCNC(=N)N)C(=O)N[C@@H](CCCCN)C(=O)N[C@@H](CCCNC(=N)N)C(=O)N[C@@H](CCC(N)=O)C(=O)N[C@@H](CCC(N)=O)C(N)=O)[C@@H](C)CC)[C@@H](C)CC)[C@@H](C)O)[C@@H](C)O)C(C)C)C(C)C [Melittin]	8	more susceptible	more susceptible							
HLYPCKLNLKLGKVPFHFLNLNHKGKSIMVNQQTCLYYIICQTR [ISGCock_Contig13_4610–1, synthetic peptide, first AMPA stretch of a predicted novel AMP from a P. americana transcript]	>64			64	>64	stronger antimicrobial activity than melittin	greater than that of melittin	strong antimicrobial activity	antimicrobial activity	relatively low compared to that of melittin
